Results from PubChem BioAssay AID298 (DTP/NCI, 2004).
Values joined by “and” are separate entries in the source; they are usually repeats but may differ in a detail not shown here. Equal entries are not always repeated. Results filed as inconclusive are left out.

System: MX-1 breast xenograft, intrarenal, nude mice, tumor weight
Test: NCI In Vivo Anticancer Drug Screen. Data for tumor model Human Mammary Carcinoma MX-1 Xenograft (intrarenal inoculation) in NU/NU BALB/C (nude) mice
Conditions: endpoint: mean tumor weight change, higher = larger tumour
Outline: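 Efficacy in vivo: tumor measurement or survival of treated animals divided by that of vehicle-dosed controls.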

[1] = dose: 150.0 mg/kg/injection, schedule: Q04DX003 (ip), vehicle: saline with Tween-80
[2] = dose: 300.0 mg/kg/injection, schedule: Q04DX003 (ip), vehicle: saline with Tween-80
[3] = dose: 50.0 mg/kg/injection, schedule: Q04DX003 (ip), vehicle: saline with Tween-80
[4] = dose: 100.0 mg/kg/injection, schedule: Q04DX003 (ip), vehicle: saline with Tween-80
[5] = dose: 200.0 mg/kg/injection, schedule: Q04DX003 (sc), vehicle: saline with Tween-80
[6] = dose: 100.0 mg/kg/injection, schedule: Q04DX003 (ip), vehicle: Klucel (hydroxypropylcellulose) (HPC)
[7] = dose: 200.0 mg/kg/injection, schedule: Q04DX003 (ip), vehicle: Klucel (hydroxypropylcellulose) (HPC)

Nc1ccn(C2CC(N)C(CO)O2)c(=O)n1 (centres undefined)
T/C (dose: 75.0 mg/kg/injection, schedule: Q04DX003 (ip), vehicle: saline with Tween-80): 77 % of control | T/C [1]: 105 % of control | T/C [2]: 74 % of control | T/C (dose: 600.0 mg/kg/injection, schedule: Q04DX003 (ip), vehicle: saline with Tween-80): 82 % of control

ClCCCN1CCCCC1CCl (centres undefined)
T/C (dose: 6.25 mg/kg/injection, schedule: Q04DX003 (sc), vehicle: saline): 53 % of control | T/C (dose: 12.5 mg/kg/injection, schedule: Q04DX003 (sc), vehicle: saline): 3 % of control | T/C (dose: 25.0 mg/kg/injection, schedule: Q04DX003 (sc), vehicle: saline): -13 % of control

O=S1(=O)CS(=O)(=O)OCCO1
T/C (dose: 12.5 mg/kg/injection, schedule: Q04DX003 (sc), vehicle: Klucel (hydroxypropylcellulose) (HPC)): 72 % of control | T/C (dose: 25.0 mg/kg/injection, schedule: Q04DX003 (sc), vehicle: Klucel (hydroxypropylcellulose) (HPC)): 23 % of control | T/C (dose: 37.5 mg/kg/injection, schedule: Q04DX003 (sc), vehicle: Klucel (hydroxypropylcellulose) (HPC)): 42 % of control | T/C (dose: 50.0 mg/kg/injection, schedule: Q04DX003 (sc), vehicle: Klucel (hydroxypropylcellulose) (HPC)): 2 % of control | T/C (dose: 150.0 mg/kg/injection, schedule: Q04DX003 (sc), vehicle: Klucel (hydroxypropylcellulose) (HPC)): 16 % of control and 21 % of control | T/C (dose: 300.0 mg/kg/injection, schedule: Q04DX003 (sc), vehicle: Klucel (hydroxypropylcellulose) (HPC)): 11 % of control

Oc1cccc2ccccc12
T/C (dose: 150.0 mg/kg/injection, schedule: Q04DX003 (ip), vehicle: water): 81 % of control

COC(COC(=O)N1CCN(C=O)CC1)C1=C(N2CC2)C(=O)C(C)=C(N2CC2)C1=O (centres undefined)
T/C (dose: 3.0 mg/kg/injection, schedule: Q04DX003 (ip), vehicle: saline): 5 % of control and -16 % of control

CC1=C(/C=C/C(C)=C/C=C/C(C)=C/C=O)C(C)(C)CCC1
T/C (dose: 150.0 mg/kg/injection, schedule: Q04DX003 (sc), vehicle: saline with Tween-80): 84 % of control | T/C (dose: 300.0 mg/kg/injection, schedule: Q04DX003 (sc), vehicle: saline with Tween-80): 39 % of control | T/C (dose: 600.0 mg/kg/injection, schedule: Q04DX003 (sc), vehicle: saline with Tween-80): 51 % of control | T/C (dose: 1200.0 mg/kg/injection, schedule: Q04DX003 (sc), vehicle: saline with Tween-80): 34 % of control

Cc1cccc(OCC(O)CN2CC2)c1 (centres undefined)
T/C [3]: 63 % of control | T/C [4]: 62 % of control

O=C1N[C@@H]([C@H]2CC[C@H](Cl)CN2)C(=O)N[C@H]1[C@H]1CC[C@H](Cl)CN1
T/C (dose: 0.31 mg/kg/injection, schedule: Q01DX010 (sc), vehicle: water): 62 % of control | T/C (dose: 0.63 mg/kg/injection, schedule: Q01DX010 (sc), vehicle: water): 14 % of control | T/C (dose: 1.25 mg/kg/injection, schedule: Q01DX010 (sc), vehicle: water): 1 % of control | T/C (dose: 2.5 mg/kg/injection, schedule: Q01DX010 (sc), vehicle: water): -54 % of control | T/C (dose: 5.0 mg/kg/injection, schedule: Q01DX010 (sc), vehicle: water): -87 % of control

CCCCCc1cc(/C=C2/N=C(c3ccc[nH]3)C=C2OC)[nH]c1C
T/C (dose: 16.0 mg/kg/injection, schedule: Q04DX003 (sc), vehicle: saline with Tween-80): 93 % of control | T/C (dose: 32.0 mg/kg/injection, schedule: Q04DX003 (sc), vehicle: saline with Tween-80): 93 % of control | T/C (dose: 64.0 mg/kg/injection, schedule: Q04DX003 (sc), vehicle: saline with Tween-80): 75 % of control | T/C (dose: 128.0 mg/kg/injection, schedule: Q04DX003 (sc), vehicle: saline with Tween-80): 46 % of control

CN(C)CCCN=c1c2ccccc2n(C)c2[nH]c(=O)n(C)c(=O)c12
T/C (dose: 25.0 mg/kg/injection, schedule: Q04DX003 (ip), vehicle: saline): 112 % of control | T/C (dose: 50.0 mg/kg/injection, schedule: Q04DX003 (ip), vehicle: saline): 82 % of control

CCCC1CCC(=C2C(=O)CCC2=O)O1 (centres undefined)
T/C [1]: 68 % of control

CCOC1NC(=O)Oc2ccccc21 (centres undefined)
T/C (dose: 150.0 mg/kg/injection, schedule: Q04DX003 (ip), vehicle: Klucel (hydroxypropylcellulose) (HPC)): 80 % of control | T/C (dose: 300.0 mg/kg/injection, schedule: Q04DX003 (ip), vehicle: Klucel (hydroxypropylcellulose) (HPC)): 74 % of control | T/C (dose: 600.0 mg/kg/injection, schedule: Q04DX003 (ip), vehicle: Klucel (hydroxypropylcellulose) (HPC)): 86 % of control | T/C (dose: 1200.0 mg/kg/injection, schedule: Q04DX003 (ip), vehicle: Klucel (hydroxypropylcellulose) (HPC)): 79 % of control

COc1nc(C(Cl)(Cl)Cl)c(Cl)c(OC)c1Cl
T/C (dose: 89.0 mg/kg/injection, schedule: Q04DX003 (oral), vehicle: Klucel (hydroxypropylcellulose) (HPC)): -100 % of control | T/C (dose: 133.5 mg/kg/injection, schedule: Q04DX003 (oral), vehicle: Klucel (hydroxypropylcellulose) (HPC)): -100 % of control | T/C (dose: 200.0 mg/kg/injection, schedule: Q04DX003 (oral), vehicle: Klucel (hydroxypropylcellulose) (HPC)): -100 % of control | T/C (dose: 300.0 mg/kg/injection, schedule: Q04DX003 (oral), vehicle: Klucel (hydroxypropylcellulose) (HPC)): -100 % of control | T/C (dose: 450.0 mg/kg/injection, schedule: Q04DX003 (oral), vehicle: Klucel (hydroxypropylcellulose) (HPC)): -100 % of control

CCC1OC(OC)C=CC1=O (centres undefined)
T/C (dose: 18.75 mg/kg/injection, schedule: Q04DX003 (sc), vehicle: saline): 112 % of control | T/C (dose: 37.5 mg/kg/injection, schedule: Q04DX003 (sc), vehicle: saline): 63 % of control | T/C (dose: 75.0 mg/kg/injection, schedule: Q04DX003 (sc), vehicle: saline): 98 % of control

C=Cc1cc(OC)c2c(c1)c(=O)oc1c2cc(OC)c2c(O)ccc(C3OC(C)C(O)C(C)(O)C3O)c21 (centres undefined)
T/C (dose: 37.5 mg/kg/injection, schedule: Q04DX003 (ip), vehicle: DMSO): 95 % of control | T/C (dose: 75.0 mg/kg/injection, schedule: Q04DX003 (ip), vehicle: DMSO): 86 % of control | T/C (dose: 150.0 mg/kg/injection, schedule: Q04DX003 (ip), vehicle: DMSO): 79 % of control | T/C (dose: 300.0 mg/kg/injection, schedule: Q04DX003 (ip), vehicle: DMSO): 64 % of control

CN(C)CCNc1ccc(CO)c2sc3ccc(O)cc3c(=O)c12
T/C [3]: 30 % of control | T/C [4]: 25 % of control and 26 % of control and 28 % of control | T/C (dose: 200.0 mg/kg/injection, schedule: Q04DX003 (ip), vehicle: saline with Tween-80): 6 % of control and 17 % of control and 28 % of control | T/C (dose: 400.0 mg/kg/injection, schedule: Q04DX003 (ip), vehicle: saline with Tween-80): 5 % of control and 10 % of control and 18 % of control

CS(C)=O
T/C (dose: 750.0 mg/kg/injection, schedule: Q01DX010 (sc), vehicle: saline): 122 % of control | T/C (dose: 3000.0 mg/kg/injection, schedule: Q01DX010 (sc), vehicle: saline): 121 % of control

[Cl][Sn]([c]1ccccc1)[c]1ccccc1
T/C (dose: 300.0 mg/kg/injection, schedule: Q04DX003 (sc), vehicle: saline): 104 % of control | T/C (dose: 600.0 mg/kg/injection, schedule: Q04DX003 (sc), vehicle: saline): 86 % of control | T/C (dose: 1200.0 mg/kg/injection, schedule: Q04DX003 (sc), vehicle: saline): 55 % of control | T/C (dose: 2400.0 mg/kg/injection, schedule: Q04DX003 (sc), vehicle: saline): 66 % of control

COc1cc2c(cc1OC)-c1c3c(cc4c1[C@@H](C2)N(C)CC4)OCO3
T/C (dose: 37.5 mg/kg/injection, schedule: Q04DX003 (ip), vehicle: distilled water + alcohol): 56 % of control | T/C (dose: 75.0 mg/kg/injection, schedule: Q04DX003 (ip), vehicle: distilled water + alcohol): 55 % of control | T/C (dose: 150.0 mg/kg/injection, schedule: Q04DX003 (ip), vehicle: distilled water + alcohol): 68 % of control

O=c1c(O)c(-c2cc(O)c(O)c(O)c2)oc2cc(O)cc(O)c12
T/C (dose: 50.0 mg/kg/injection, schedule: Q04DX003 (sc), vehicle: saline with Tween-80): 95 % of control | T/C (dose: 100.0 mg/kg/injection, schedule: Q04DX003 (sc), vehicle: saline with Tween-80): 111 % of control | T/C [5]: 115 % of control | T/C (dose: 400.0 mg/kg/injection, schedule: Q04DX003 (sc), vehicle: saline with Tween-80): 179 % of control

CN1C2C=CC(=O)C1C1C(=O)N(c3ccccc3)C(=O)C12 (centres undefined)
T/C [6]: 105 % of control | T/C [7]: 77 % of control

CCc1ccc(C2=C(O)C(=O)C(c3ccc(CC)cc3)=C(O)C2=O)cc1
T/C [5]: 67 % of control

O=C1C2=C(Nc3cc([N+](=O)[O-])ccc3N2)OC1c1ccccn1 (centres undefined)
T/C (dose: 50.0 mg/kg/injection, schedule: Q04DX003 (ip), vehicle: Klucel (hydroxypropylcellulose) (HPC)): 87 % of control | T/C [6]: 66 % of control | T/C [7]: 118 % of control | T/C (dose: 400.0 mg/kg/injection, schedule: Q04DX003 (ip), vehicle: Klucel (hydroxypropylcellulose) (HPC)): 63 % of control

Clc1ccccc1C(Nc1cnccn1)Nc1cnccn1
T/C [2]: 70 % of control and 89 % of control
